Laboratory results as given in US11952364B2, “TRK inhibitors useful as anticancer drugs” (TYLIGAND BIOSCIENCE (SHANGHAI) LIMITED, priority 2018, dated 2024).

Legend:
[1] = Metabolic stability in liver microsomes; assay type: in vitro ADME, cynomolgus monkey; conditions: pH 7.4, monkey liver microsomes; for half-life at 1 µM: read-out: T½
Source text: (§1) According to standard methods conventional in the art for in vitro metabolic stability studies, for example those protocols described in Kems, Edward H. and Di Li (2008). Drug-like Properties: Concepts. Structure Design and Methods: from ADME to Toxicity Optimization. San Diego: Academic Press; Di, Li et al., Optimization of a Higher Throughput Microsomal Stability Screening Assay for Profiling Drug Discovery Candidates, J. Biomol. Screen. 2003, 8(4), 453., the metabolic stability test in liver microsomes of the present compound was performed analogously as follows.
The in vitro metabolic stability of the compound in 5 species (mouse, rat, dog, monkey, and human) was evaluated by liver microsomal stability test. 0.1M potassium phosphate buffer solution (pH 7.4, containing 1.0 mM EDTA) was prepared. The test compound and the control compound were prepared into a 10 mM DMSO solution, and then 10 μL of the 10 mM DMSO compound solution was added to 190 μL of acetonitrile to prepare a 500 μM compound solution. Liver microsomes (Sekisui XenoTech, LLC., human liver microsomes, cat. #H0610; Beagle dog liver microsomes, cat. #D1000; cynomolgus monkey liver microsomes, cat. #P2073; rat liver microsomes, cat. #R1073; mouse Liver microsomes, cat. #M1000) were taken and slowly melted on ice, then 18.75 μL of the liver microsome solution (20 mg/mL) and 1.5 μL of 500 μM compound solution were added to 479.75 μL of 0.1M potassium phosphate buffer solution to prepare a 0.75 mg/mL liver microsome working solution with a concentration of 1.5 μM compound. 6 mM NADPH (SIGMA, cat. #V900362) aqueous solution was prepared. 0.2 mL 2 mg/mL internal standard stock solution (imipramine solution in acetonitrile) was added to 1000 mL acetonitrile (SIGMA, cat. #271004) to prepare the reaction stop solution and stored at 4° C.
Six deep-well plates were labeled as T0, T5, T15, T30, T45 and NCF60 (negative control, without NADPH). 30 μL of […] control compound or test compound solution in 0.75 mg/mL liver microsome working solution was added to each well of the corresponding plates. After being sealed with film, all the microplates were placed in a 37° C. water bath to preheat for 5 minutes, and 6 mM NADPH solution was placed in a 37° C. water bath to preheat for 5 minutes. Then 15 μL of NADPH solution was added to each cell successively in reverse time order, that is, first adding the T45 plate, 15 minutes later the T30 plate, 15 minutes later again the T15 plate, and 10 minutes later gain the T5 plate. […]
(§2) The natural logarithm of the residue percentage at each time point was subjected to linearly regression as a factor of incubation time to obtain Slope k, and then the liver microsome clearance rate (CLint^mic) and in vitro half-life (T½) were calculated according to the following formula: […]

MYO3B = MYO3B (Homo sapiens (Human), UniProt Q8WXR4); experiment: KINOMEscan competition binding assay
Protocol: (§3) The experiment was performed according to the standard kinase activity determination protocol by Eurofins DiscoverX Corporation (11180 Roselle St. Suite D, San Diego, CA, USA, www.discoverX.com). Specifically, the experiment was conducted using the KINOMEscan™ screening platform, which adopts an active site-directed competition binding assay to quantitatively measure the interaction between test compounds and more than hundreds of human kinases and disease-related mutants. The working principle of the screening platform and kinase assay methods are well known in the art, for example, see www.discoverX.com.

FLT4 = FLT4 (Homo sapiens (Human), UniProt P35916); experiment: KINOMEscan competition binding assay
Protocol: as §3

HIPK4 = HIPK4 (Homo sapiens (Human), UniProt Q8NE63); experiment: KINOMEscan competition binding assay
HIPK4, sequence (Q8NE63 whole entry): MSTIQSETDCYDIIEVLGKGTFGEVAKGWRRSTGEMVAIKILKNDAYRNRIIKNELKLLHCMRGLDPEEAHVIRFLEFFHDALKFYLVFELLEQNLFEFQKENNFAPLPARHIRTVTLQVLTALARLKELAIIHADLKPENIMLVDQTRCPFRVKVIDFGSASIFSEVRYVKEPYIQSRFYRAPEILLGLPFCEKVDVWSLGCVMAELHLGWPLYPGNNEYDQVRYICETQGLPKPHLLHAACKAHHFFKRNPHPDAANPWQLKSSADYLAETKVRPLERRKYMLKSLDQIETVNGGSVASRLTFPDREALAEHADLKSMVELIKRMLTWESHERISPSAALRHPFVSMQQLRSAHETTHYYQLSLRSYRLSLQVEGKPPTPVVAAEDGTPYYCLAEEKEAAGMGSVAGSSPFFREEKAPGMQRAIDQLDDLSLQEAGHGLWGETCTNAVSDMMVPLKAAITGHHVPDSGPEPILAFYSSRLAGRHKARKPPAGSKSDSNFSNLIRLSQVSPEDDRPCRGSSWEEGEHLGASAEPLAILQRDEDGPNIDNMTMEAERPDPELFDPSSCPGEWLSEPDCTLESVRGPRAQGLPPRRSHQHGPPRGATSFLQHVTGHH
Protocol: as §3

CSF1R = CSF1R (Homo sapiens (Human), UniProt P07333); experiment: KINOMEscan competition binding assay
CSF1R, sequence (P07333 20-972): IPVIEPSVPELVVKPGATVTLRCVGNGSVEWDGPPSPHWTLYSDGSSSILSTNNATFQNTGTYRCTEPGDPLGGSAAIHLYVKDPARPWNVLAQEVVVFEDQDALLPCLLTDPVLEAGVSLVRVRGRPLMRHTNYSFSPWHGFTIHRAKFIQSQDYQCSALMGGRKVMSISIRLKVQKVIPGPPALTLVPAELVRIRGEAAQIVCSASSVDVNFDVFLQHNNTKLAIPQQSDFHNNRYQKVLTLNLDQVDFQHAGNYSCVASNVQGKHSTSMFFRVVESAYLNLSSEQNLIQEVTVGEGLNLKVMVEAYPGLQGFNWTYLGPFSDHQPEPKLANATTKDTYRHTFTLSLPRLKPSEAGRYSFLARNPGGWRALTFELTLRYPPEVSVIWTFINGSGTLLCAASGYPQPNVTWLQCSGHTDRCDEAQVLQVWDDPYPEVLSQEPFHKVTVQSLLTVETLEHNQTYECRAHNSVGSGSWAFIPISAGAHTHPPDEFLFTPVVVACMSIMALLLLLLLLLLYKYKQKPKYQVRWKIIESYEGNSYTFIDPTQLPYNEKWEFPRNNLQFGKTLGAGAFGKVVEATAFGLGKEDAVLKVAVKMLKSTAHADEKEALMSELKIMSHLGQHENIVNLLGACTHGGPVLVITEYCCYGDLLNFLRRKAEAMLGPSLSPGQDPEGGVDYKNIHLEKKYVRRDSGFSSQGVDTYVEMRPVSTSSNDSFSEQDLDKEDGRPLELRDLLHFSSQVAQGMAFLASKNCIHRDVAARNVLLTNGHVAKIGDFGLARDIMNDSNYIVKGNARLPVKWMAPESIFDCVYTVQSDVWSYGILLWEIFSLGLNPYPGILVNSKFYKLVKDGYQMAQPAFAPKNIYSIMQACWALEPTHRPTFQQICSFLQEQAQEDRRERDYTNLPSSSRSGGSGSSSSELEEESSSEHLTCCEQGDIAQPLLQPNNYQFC
Protocol: as §3

IKK-alpha = IKK-alpha (Homo sapiens (Human), UniProt O15111); experiment: KINOMEscan competition binding assay
IKK-alpha, sequence (O15111 whole entry): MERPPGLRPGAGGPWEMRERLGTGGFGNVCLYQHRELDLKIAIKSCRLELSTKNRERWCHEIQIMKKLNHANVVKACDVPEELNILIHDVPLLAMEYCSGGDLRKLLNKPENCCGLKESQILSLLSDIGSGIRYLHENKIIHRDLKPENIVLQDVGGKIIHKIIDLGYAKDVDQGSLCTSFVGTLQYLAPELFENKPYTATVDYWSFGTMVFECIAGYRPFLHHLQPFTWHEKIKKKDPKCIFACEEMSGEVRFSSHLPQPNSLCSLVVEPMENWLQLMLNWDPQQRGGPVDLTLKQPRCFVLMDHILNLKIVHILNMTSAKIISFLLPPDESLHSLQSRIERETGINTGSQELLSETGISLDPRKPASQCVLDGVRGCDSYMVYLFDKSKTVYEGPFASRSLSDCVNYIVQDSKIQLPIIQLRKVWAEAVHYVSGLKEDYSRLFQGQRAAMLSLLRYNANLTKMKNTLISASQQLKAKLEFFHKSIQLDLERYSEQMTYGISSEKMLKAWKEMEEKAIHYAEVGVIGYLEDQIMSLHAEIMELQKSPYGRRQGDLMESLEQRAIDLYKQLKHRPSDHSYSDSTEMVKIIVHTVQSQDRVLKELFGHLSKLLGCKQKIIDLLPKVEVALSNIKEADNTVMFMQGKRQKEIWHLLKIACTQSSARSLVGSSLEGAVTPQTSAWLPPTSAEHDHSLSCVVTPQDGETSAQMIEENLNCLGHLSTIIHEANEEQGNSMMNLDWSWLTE
Protocol: as §3

FLT3 = FLT3 (Homo sapiens (Human), UniProt P36888); experiment: KINOMEscan competition binding assay
Protocol: as §3

MST1R = MST1R (Homo sapiens (Human), UniProt Q04912); experiment: KINOMEscan competition binding assay
Protocol: as §3

MET(Y1235D) = MET(Y1235D) (Homo sapiens (Human), UniProt P08581, Y1235D); experiment: KINOMEscan competition binding assay
Protocol: as §3

MKNK2 = MKNK2 (Homo sapiens (Human), UniProt Q9HBH9); experiment: KINOMEscan competition binding assay
Protocol: as §3

KIT(L576P) = KIT(L576P) (Homo sapiens (Human), UniProt P10721, L576P); experiment: KINOMEscan competition binding assay
KIT(L576P), sequence (P10721 26-976 L576P): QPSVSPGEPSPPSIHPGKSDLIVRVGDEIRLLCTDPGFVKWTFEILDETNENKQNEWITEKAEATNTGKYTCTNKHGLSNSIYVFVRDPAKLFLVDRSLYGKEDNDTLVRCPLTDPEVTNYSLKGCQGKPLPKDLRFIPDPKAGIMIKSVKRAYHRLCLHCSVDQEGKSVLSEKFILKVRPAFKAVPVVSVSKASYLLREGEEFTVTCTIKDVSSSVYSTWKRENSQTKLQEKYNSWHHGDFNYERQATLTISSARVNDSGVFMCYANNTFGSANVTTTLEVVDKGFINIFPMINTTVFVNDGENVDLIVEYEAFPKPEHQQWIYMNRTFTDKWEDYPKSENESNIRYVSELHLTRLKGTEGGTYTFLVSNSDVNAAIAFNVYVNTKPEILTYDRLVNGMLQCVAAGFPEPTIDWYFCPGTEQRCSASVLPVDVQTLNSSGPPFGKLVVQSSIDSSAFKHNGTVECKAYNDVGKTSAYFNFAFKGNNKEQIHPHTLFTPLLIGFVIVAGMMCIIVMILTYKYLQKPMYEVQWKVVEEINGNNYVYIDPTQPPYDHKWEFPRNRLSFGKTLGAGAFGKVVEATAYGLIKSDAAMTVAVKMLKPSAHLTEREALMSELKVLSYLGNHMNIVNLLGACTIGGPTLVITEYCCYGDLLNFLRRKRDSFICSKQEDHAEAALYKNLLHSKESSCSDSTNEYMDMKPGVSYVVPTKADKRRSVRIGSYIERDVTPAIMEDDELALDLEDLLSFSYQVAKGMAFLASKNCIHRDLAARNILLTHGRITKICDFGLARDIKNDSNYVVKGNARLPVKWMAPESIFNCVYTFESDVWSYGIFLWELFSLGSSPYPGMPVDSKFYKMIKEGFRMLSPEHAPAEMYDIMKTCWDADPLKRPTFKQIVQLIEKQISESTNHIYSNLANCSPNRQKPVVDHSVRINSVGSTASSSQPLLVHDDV
Protocol: as §3

ROS1 = ROS1 (Homo sapiens (Human), UniProt P08922); experiment: KINOMEscan competition binding assay
Protocol: as §3

KIT = KIT (Homo sapiens (Human), UniProt P10721); experiment: KINOMEscan competition binding assay
KIT, sequence (P10721 26-976): as the sequence (P10721 26-976 L576P) above, with P551L counted along it
Protocol: as §3

EPHA8 = EPHA8 (Homo sapiens (Human), UniProt P29322); experiment: KINOMEscan competition binding assay
Protocol: as §3

TRKA = TRKA (Homo sapiens (Human), UniProt P04629); experiment: KINOMEscan competition binding assay
TRKA, sequence (P04629 33-796): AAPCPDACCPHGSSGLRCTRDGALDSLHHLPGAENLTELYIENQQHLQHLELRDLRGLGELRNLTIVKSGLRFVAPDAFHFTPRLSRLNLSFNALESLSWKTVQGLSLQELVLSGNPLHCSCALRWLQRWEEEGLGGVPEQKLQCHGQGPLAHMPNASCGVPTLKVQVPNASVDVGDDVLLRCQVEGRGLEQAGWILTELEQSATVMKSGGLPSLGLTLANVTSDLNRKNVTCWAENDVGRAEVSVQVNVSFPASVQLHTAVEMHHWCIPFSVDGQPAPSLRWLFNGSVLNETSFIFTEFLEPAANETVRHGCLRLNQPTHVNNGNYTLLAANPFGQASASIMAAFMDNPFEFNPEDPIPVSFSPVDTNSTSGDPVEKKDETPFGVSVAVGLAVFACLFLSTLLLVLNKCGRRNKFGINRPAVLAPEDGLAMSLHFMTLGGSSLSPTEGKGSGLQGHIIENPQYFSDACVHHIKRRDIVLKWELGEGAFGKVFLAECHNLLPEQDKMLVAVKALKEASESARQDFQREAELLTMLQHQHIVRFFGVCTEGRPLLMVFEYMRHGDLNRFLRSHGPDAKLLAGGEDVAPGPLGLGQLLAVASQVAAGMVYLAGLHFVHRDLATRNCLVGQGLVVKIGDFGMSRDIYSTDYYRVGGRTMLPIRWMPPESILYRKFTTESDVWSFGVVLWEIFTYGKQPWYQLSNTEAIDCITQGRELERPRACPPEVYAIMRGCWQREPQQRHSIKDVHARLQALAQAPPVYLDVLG
Protocol: as §3

MUSK = MUSK (Homo sapiens (Human), UniProt O15146); experiment: KINOMEscan competition binding assay
MUSK, sequence (O15146 24-869): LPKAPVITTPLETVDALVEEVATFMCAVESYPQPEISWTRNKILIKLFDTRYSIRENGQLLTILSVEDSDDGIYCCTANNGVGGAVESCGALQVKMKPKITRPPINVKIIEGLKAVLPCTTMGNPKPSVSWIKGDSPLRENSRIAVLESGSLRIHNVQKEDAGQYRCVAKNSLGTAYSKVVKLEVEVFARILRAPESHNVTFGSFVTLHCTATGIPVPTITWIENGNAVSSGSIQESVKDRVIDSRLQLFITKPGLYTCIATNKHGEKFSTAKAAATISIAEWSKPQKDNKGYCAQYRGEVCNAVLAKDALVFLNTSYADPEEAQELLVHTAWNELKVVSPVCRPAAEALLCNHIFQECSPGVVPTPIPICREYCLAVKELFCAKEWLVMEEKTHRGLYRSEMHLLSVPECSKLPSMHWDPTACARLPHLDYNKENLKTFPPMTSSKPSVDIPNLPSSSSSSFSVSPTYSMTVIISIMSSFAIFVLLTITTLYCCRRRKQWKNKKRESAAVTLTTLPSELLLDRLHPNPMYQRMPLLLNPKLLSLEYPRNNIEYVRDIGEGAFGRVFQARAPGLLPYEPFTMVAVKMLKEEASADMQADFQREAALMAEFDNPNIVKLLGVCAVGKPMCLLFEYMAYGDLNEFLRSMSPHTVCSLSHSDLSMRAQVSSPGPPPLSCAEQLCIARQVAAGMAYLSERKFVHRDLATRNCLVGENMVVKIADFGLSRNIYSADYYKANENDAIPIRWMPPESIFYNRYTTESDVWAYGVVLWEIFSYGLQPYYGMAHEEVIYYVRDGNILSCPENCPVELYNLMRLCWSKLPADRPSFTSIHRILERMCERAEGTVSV
Protocol: as §3

RAF1 = RAF1 (Homo sapiens (Human), UniProt P04049); experiment: KINOMEscan competition binding assay
Protocol: as §3

[2] = Metabolic stability in liver microsomes (overall statement); assay type: in vitro ADME; conditions: statement in words
Source text: as §1
The in vitro metabolic stability of the compound in 5 species (mouse, rat, dog, monkey, and human) was evaluated by liver microsomal stability test. 0.1M potassium phosphate buffer solution (pH 7.4, containing 1.0 mM EDTA) was prepared. The test compound and the control compound were prepared into a 10 mM DMSO solution, and then 10 μL of the 10 mM DMSO compound solution was added to 190 μL of acetonitrile to prepare a 500 μM compound solution. […]
as §2

CLint scaled at 1 µM [1]	half-life at 1 µM [1]	inhibition at 2 µM (MYO3B)	inhibition at 2 µM (FLT4)	inhibition at 2 µM (HIPK4)	inhibition at 2 µM (CSF1R)	inhibition at 2 µM (IKK-alpha)	inhibition at 2 µM (FLT3)	inhibition at 2 µM (MST1R)	inhibition at 2 µM (MET(Y1235D))	inhibition at 2 µM (MKNK2)	inhibition at 2 µM (KIT(L576P))	inhibition at 2 µM (ROS1)	inhibition at 2 µM (KIT)	inhibition at 2 µM (EPHA8)	inhibition at 2 µM (TRKA)	inhibition at 2 µM (MUSK)	inhibition at 2 µM (RAF1)	SMILES	metabolic stability in liver microsomes compared with Merestinib [2]
36.2 mL/min/kg	56 min	100%	92%	97%	100%	97%	99%	98%	99%	100%	100%	97%	100%	96%	100%	98%	92%	COc1ccc(C(=O)Nc2ccc(Oc3cc4cnn(C)c4cc3-c3cn[nH]c3)c(F)c2)c(=O)n1-c1ccc(F)cc1 [Example 12, N-(3-fluoro-4-(1-methyl-6-(1H-pyrazol-4-yl)-1H-indazol-5-yloxy)phenyl)-1-(4-fluorophenyl)-6-methoxy-2-oxo-1,2-dihydropyridine-3-carboxamide]	significantly improved metabolic stability in liver microsomes
81 mL/min/kg	25 min																	Cc1ccc(C(=O)Nc2ccc(Oc3cc4cnn(C)c4cc3-c3cn[nH]c3)c(F)c2)c(=O)n1-c1ccc(F)cc1 [Merestinib, reference compound]	
